Results: the supplement of paper PMC11061612

Assays:
Carboplatin = compound: C1CC(C1)(C(=O)[O-])C(=O)[O-].N.N.[Pt+2] [Carboplatin]; details: max 10 µM
Procedure, shortened: (§1)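 Cancer cell lines were seeded in 1536-well plates in 7.5 μl DMEM/F12 or RPMI with 10% FBS, held 24 hours at 37°C and 5% CO2, then dosed for 72 hours (final DMSO typically 0.2%). Viability was read by CellTiter-Glo 2.0 luminescence and scaled between blank-well and DMSO-well means. The single-agent IC50 comes from dose responses fitted to a two-parameter logistic curve with a non-linear mixed effects model.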

AZD5363 = compound: C1CN(CCC1(C(=O)N[C@@H](CCO)C2=CC=C(C=C2)Cl)N)C3=NC=NC4=C3C=CN4 [AZD5363]; details: max 10 µM
Procedure, shortened: as §1

AZD1775 = compound: C=CCn1c(=O)c2cnc(Nc3ccc(N4CCN(C)CC4)cc3)nc2n1-c1cccc(C(C)(C)O)n1 [AZD1775]; details: max 3 µM
Procedure, shortened: as §1

Trametinib = compound: CC(=O)Nc1cccc(-n2c(=O)n(C3CC3)c(=O)c3c(Nc4ccc(I)cc4F)n(C)c(=O)c(C)c32)c1 [Trametinib]; details: max 1 µM
Procedure, shortened: as §1

Paclitaxel = compound: CC(=O)O[C@H]1C(=O)[C@@]2(C)[C@H]([C@H](OC(=O)c3ccccc3)[C@]3(O)C[C@H](OC(=O)[C@H](O)[C@@H](NC(=O)c4ccccc4)c4ccccc4)C(C)=C1C3(C)C)[C@]1(OC(C)=O)CO[C@@H]1C[C@@H]2O [Paclitaxel]; details: max 3 µM
Procedure, shortened: as §1

Palbociclib = compound: CC(=O)c1c(C)c2cnc(Nc3ccc(N4CCNCC4)cn3)nc2n(C2CCCC2)c1=O [Palbociclib]; details: max 10 µM
Procedure, shortened: as §1

AZD1390 = compound: CC(C)n1c(=O)n(C)c2cnc3cc(F)c(-c4ccc(OCCCN5CCCCC5)nc4)cc3c21 [AZD1390]; details: max 0.3 µM
Procedure, shortened: as §1

Venetoclax = compound: CC1(C)CCC(CN2CCN(c3ccc(C(=O)NS(=O)(=O)c4ccc(NCC5CCOCC5)c([N+](=O)[O-])c4)c(Oc4cnc5[nH]ccc5c4)c3)CC2)=C(c2ccc(Cl)cc2)C1 [Venetoclax]; details: max 1 µM
Procedure, shortened: as §1

Dasatinib = compound: CC1=C(C(=CC=C1)Cl)NC(=O)C2=CN=C(S2)NC3=CC(=NC(=N3)C)N4CCN(CC4)CCO [Dasatinib]; details: max 2 µM
Procedure, shortened: as §1

SG3199 = compound: CC1=CN2[C@@H](C1)C=NC3=CC(=C(C=C3C2=O)OC)OCCCCCOC4=C(C=C5C(=C4)N=C[C@@H]6CC(=CN6C5=O)C)OC [SG3199]; details: max 0.001 µM
Procedure, shortened: as §1

AZD2811 = compound: CCN(CCO)CCCOc1ccc2c(Nc3cc(CC(=O)Nc4cccc(F)c4)[nH]n3)ncnc2c1 [AZD2811]; details: max 1 µM
Procedure, shortened: as §1

SN-38 = compound: CCc1c2c(nc3ccc(O)cc13)-c1cc3c(c(=O)n1C2)COC(=O)[C@]3(O)CC [SN-38]; details: max 0.3 µM
Procedure, shortened: as §1

AZD0156 = compound: CN(C)CCCOc1ccc(-c2ccc3ncc4c(c3c2)n(C2CCOCC2)c(=O)n4C)cn1 [AZD0156]; details: max 3 µM
Procedure, shortened: as §1

AZD4320 = compound: CN(CC[C@H](CSC1=CC=CC=C1)NC2=C(C=C(C=C2)S(=O)(=O)NC(=O)C3=CC=C(C=C3)N4CCC(CC4)[C@H](C5=CC=CC=C5C6=CC=C(C=C6)Cl)O)S(=O)(=O)C(F)(F)F)CCO [AZD4320]; details: max 1 µM
Procedure, shortened: as §1

Alisertib = compound: COc1cc(Nc2ncc3c(n2)-c2ccc(Cl)cc2C(c2c(F)cccc2OC)=NC3)ccc1C(=O)O [Alisertib]; details: max 10 µM
Procedure, shortened: as §1

Etoposide = compound: COc1cc([C@@H]2c3cc4c(cc3[C@@H](O[C@@H]3O[C@@H]5CO[C@@H](C)O[C@H]5[C@H](O)[C@H]3O)[C@H]3COC(=O)[C@H]23)OCO4)cc(OC)c1O [Etoposide]; details: max 10 µM
Procedure, shortened: as §1

Gefitinib = compound: COc1cc2ncnc(Nc3ccc(F)c(Cl)c3)c2cc1OCCCN1CCOCC1 [Gefitinib]; details: max 10 µM
Procedure, shortened: as §1

Prexasertib = compound: COc1cccc(OCCCN)c1-c1cc(Nc2cnc(C#N)cn2)n[nH]1 [Prexasertib]; details: max 1 µM
Procedure, shortened: as §1

Doxorubicin = compound: COc1cccc2c1C(=O)c1c(O)c3c(c(O)c1C2=O)C[C@@](O)(C(=O)CO)C[C@@H]3O[C@H]1C[C@H](N)[C@H](O)[C@H](C)O1 [Doxorubicin]; details: max 1 µM
Procedure, shortened: as §1

AZD5153 = compound: COc1nnc2ccc(N3CCC(c4ccc(OCCN5CCN(C)C(=O)[C@H]5C)cc4)CC3)nn12 [AZD5153]; details: max 1 µM
Procedure, shortened: as §1

Lapatinib = compound: CS(=O)(=O)CCNCc1ccc(-c2ccc3ncnc(Nc4ccc(OCc5cccc(F)c5)c(Cl)c4)c3c2)o1 [Lapatinib]; details: max 10 µM
Procedure, shortened: as §1

AZD8186 = compound: C[C@@H](Nc1cc(F)cc(F)c1)c1cc(C(=O)N(C)C)cc2c(=O)cc(N3CCOCC3)oc12 [AZD8186]
Procedure, shortened: as §1

Crizotinib = compound: C[C@@H](Oc1cc(-c2cnn(C3CCNCC3)c2)cnc1N)c1c(Cl)ccc(F)c1Cl [Crizotinib]; details: max 10 µM
Procedure, shortened: as §1

Savolitinib = compound: C[C@@H](c1ccc2nccn2c1)n1nnc2ncc(-c3cnn(C)c3)nc21 [Savolitinib]; details: max 1 µM
Procedure, shortened: as §1

AZD6738 = compound: C[C@@H]1COCCN1C2=NC(=NC(=C2)C3(CC3)[S@](=N)(=O)C)C4=C5C=CNC5=NC=C4 [AZD6738]; details: max 10 µM
Procedure, shortened: as §1

AZD5991 = compound: Cc1c2c(nn1C)CSCc1cc(n(C)n1)CSc1cc(c3ccccc3c1)OCCCc1c(C(=O)O)n(C)c3c-2c(Cl)ccc13 [AZD5991]; details: max 1 µM
Procedure, shortened: as §1

AZD7648 = compound: Cc1cc2ncnn2cc1Nc1ncc2c(n1)n(C1CCOCC1)c(=O)n2C [AZD7648]; details: max 10 µM
Procedure, shortened: as §1

Taselisib = compound: Cc1nc(-c2cn3c(n2)-c2ccc(-c4cnn(C(C)(C)C(N)=O)c4)cc2OCC3)n(C(C)C)n1 [Taselisib]; details: max 10 µM
Procedure, shortened: as §1

Selumetinib = compound: Cn1cnc2c(F)c(Nc3ccc(Br)cc3Cl)c(C(=O)NOCCO)cc21 [Selumetinib]; details: max 10 µM
Procedure, shortened: as §1

SRA737 = compound: N#Cc1cnc(Nc2cc(NC[C@H]3CNCCO3)c(C(F)(F)F)cn2)cn1 [SRA737]; details: max 10 µM
Procedure, shortened: as §1

MK-2206 = compound: NC1(c2ccc(-c3nc4ccn5c(=O)[nH]nc5c4cc3-c3ccccc3)cc2)CCC1 [MK-2206]; details: max 10 µM
Procedure, shortened: as §1

Gemcitabine = compound: Nc1ccn([C@@H]2O[C@H](CO)[C@@H](O)C2(F)F)c(=O)n1 [Gemcitabine]; details: max 0.3 µM
Procedure, shortened: as §1

[1] = compound: O=C(Nc1ccc2[nH]nc(-c3ccncc3)c2c1)[C@@H]1CCN(CC(=O)N2CCN(c3ccc(-c4ncccn4)cc3)CC2)C1; details: max 5 µM
Procedure, shortened: as §1

Olaparib = compound: O=C(c1cc(Cc2n[nH]c(=O)c3ccccc23)ccc1F)N1CCN(C(=O)C2CC2)CC1 [Olaparib]; details: max 10 µM
Procedure, shortened: as §1

5-Fluorouracil = compound: O=c1[nH]cc(F)c(=O)[nH]1 [5-Fluorouracil]; details: max 20 µM
Procedure, shortened: as §1

Capivasertib = compound: C1CN(CCC1(C(=O)N[C@@H](CCO)C2=CC=C(C=C2)Cl)N)C3=NC=NC4=C3C=CN4 [Capivasertib]; details: max 10 µM
Procedure, shortened: as §1

Cell Line | IC50, cell viability 72 h (Carboplatin) | IC50, cell viability 72 h (AZD5363) | IC50, cell viability 72 h (AZD1775) | IC50, cell viability 72 h (Trametinib) | IC50, cell viability 72 h (Paclitaxel) | IC50, cell viability 72 h (Palbociclib) | IC50, cell viability 72 h (AZD1390) | IC50, cell viability 72 h (Venetoclax) | IC50, cell viability 72 h (Dasatinib) | IC50, cell viability 72 h (SG3199) | IC50, cell viability 72 h (AZD2811) | IC50, cell viability 72 h (SN-38) | IC50, cell viability 72 h (AZD0156) | IC50, cell viability 72 h (AZD4320) | IC50, cell viability 72 h (Alisertib) | IC50, cell viability 72 h (Etoposide) | IC50, cell viability 72 h (Gefitinib) | IC50, cell viability 72 h (Prexasertib) | IC50, cell viability 72 h (Doxorubicin) | IC50, cell viability 72 h (AZD5153) | IC50, cell viability 72 h (Lapatinib) | IC50, cell viability 72 h (AZD8186; max 10 µM) | IC50, cell viability 72 h (Crizotinib) | IC50, cell viability 72 h (Savolitinib) | IC50, cell viability 72 h (AZD6738) | IC50, cell viability 72 h (AZD5991) | IC50, cell viability 72 h (AZD7648) | IC50, cell viability 72 h (Taselisib) | IC50, cell viability 72 h (Selumetinib) | IC50, cell viability 72 h (SRA737) | IC50, cell viability 72 h (MK-2206) | IC50, cell viability 72 h (Gemcitabine) | IC50, cell viability 72 h [1] | IC50, cell viability 72 h (Olaparib) | IC50, cell viability 72 h (5-Fluorouracil) | IC50, cell viability 72 h (Capivasertib) | IC50, cell viability 72 h (AZD8186; max 3 µM)
22RV1 (Prostate Carcinoma) | > 10000 nM | > 10000 nM | > 3000 nM | > 1000 nM | 50.6 nM | > 10000 nM | > 300 nM | > 1000 nM | > 2000 nM | > 1 nM | > 1000 nM | 28.9 nM | > 3000 nM | > 1000 nM | > 10000 nM | > 10000 nM | > 10000 nM | > 1000 nM | 426 nM | > 1000 nM | > 10000 nM | > 10000 nM | > 10000 nM | > 1000 nM | > 10000 nM | > 1000 nM | > 10000 nM | 1860 nM | > 10000 nM | > 10000 nM | 6050 nM | 101 nM | > 5000 nM | > 10000 nM | > 20000 nM | – | –
769-P (Kidney Carcinoma) | > 10000 nM | > 10000 nM | 874 nM | > 1000 nM | 109 nM | 2870 nM | > 300 nM | > 1000 nM | 253 nM | > 1 nM | > 1000 nM | 159 nM | > 3000 nM | > 1000 nM | > 10000 nM | > 10000 nM | 8480 nM | 40.6 nM | 816 nM | 168 nM | 5240 nM | > 10000 nM | 4590 nM | > 1000 nM | 1500 nM | > 1000 nM | > 10000 nM | > 10000 nM | > 10000 nM | 1540 nM | > 10000 nM | 24.3 nM | > 5000 nM | > 10000 nM | 12400 nM | – | –
DMS-53 (Small Cell Lung Carcinoma) | – | – | > 3000 nM | > 1000 nM | – | > 10000 nM | > 300 nM | > 1000 nM | > 2000 nM | > 1 nM | > 1000 nM | 37 nM | > 3000 nM | 174 nM | > 10000 nM | – | > 10000 nM | > 1000 nM | > 1000 nM | > 1000 nM | > 10000 nM | – | > 10000 nM | > 1000 nM | > 10000 nM | > 1000 nM | > 10000 nM | > 10000 nM | > 10000 nM | – | > 10000 nM | – | – | > 10000 nM | – | > 10000 nM | > 3000 nM
